# Entries after “also recorded” stand apart in the source; their conditions may differ.
# Key:
# estrogen receptor = experiment: Screen for agonist or antagonist effects on steroid hormone receptor-mediated gene expression; type: cell-based; conditions: cell lines with endogenous genes or stably integrated reporter genes
# Protocol: A screen for the agonist or antagonist effects of a set of commercially available flavonoids was done by assessing their ability to induce or inhibit steroid hormone receptor-mediated gene expression. Cell lines were used in which the activity of endogenous genes or stably integrated reporter genes provided a facile method to quantify the effect of the flavonoids. The compound library was tested for their effects on gene expression mediated by the estrogen receptor, androgen receptor, progesterone receptor, and glucocorticoid receptor. […] Compound 2 differs from compound 1 by the addition of a hydroxyl group at carbon 3 of the flavone scaffold. We reasoned that other substitutions at position 3 could have estrogenic activity. Two novel compounds were tested: compound 3 (6-hydroxy-2-(4-hydroxyphenyl)-3-methyl-4H-chromen-4-one) and compound 4 (3-fluoro-6-hydroxy-2-(4-hydroxyphenyl)-4H-chromen-4-one) of Table 1, which have a methyl or fluoro moiety, respectively, at position 3.
# [1] = test system: Estrogen Response Element (ERE)-luciferase reporter gene; experiment: Cell culture-reporter gene assay of estrogenic activity (T47D ERE-luciferase); type: cell-based; conditions: for EC50: Homo sapiens, T47D breast cancer cell line, ERE-luciferase, treated 20 hours, FIG. 4; for estrogenic activity (luciferase) in words: compared to estradiol 1 nM
# Protocol: Estrogenic activity was compared to an optimal dose of estradiol (1 nM). Results from cell culture-reporter gene assay was performed in which a T47D breast cancer cell line with a stably integrated Estrogen Response Element (ERE)-luciferase reporter gene was treated for 20 hours with the indicated doses of test compounds (FIG. 4). Luciferase activity was compared to an optimal dose of estradiol (1 nM).
# ovariectomized rat [2] = experiment: Behavior, appearance, weight and necropsy findings of treated rats; type: in vivo; conditions: intravaginal suppository daily for 14 days
# Protocol: (§1) Compound 4 of Table 1 was tested in the ovariectomized rat, a model of GSM, (Yousefzadeh N, et al., Ovariectomized rat model of osteoporosis: a practical guide. EXCLI J. 2020 Jan. 10; 19:89-107. doi: 10.17179/excli2019-1990). Six rats were tested in each of five treatment groups: rats treated with low or high concentrations of control (vehicle only); rats treated with low (0.2 mg/suppository or high (1.0 mg/suppository levels of compound 4 (abbreviated as “3F” in these figures); and rats treated with estradiol 0.1 microgram/suppository. Suppositories were administered intravaginally daily for 14 days. There were two sets of vehicle controls, corresponding to the level of excipients used in the in the low and high compound 4 treatment conditions. The estradiol treatment condition had excipients equivalent to the high control and high compound 4 treatment conditions. The individuals performing the drug treatment of the animals, their gross evaluations, sacrifice and dissection were blinded to the treatment that each group received. […] J Steroid Biochem Mol Biol. 2008 March; 109(1-2):67-80 doi: 10.1016/j.jsbmb.2007.09.023). […] To determine the depth of the epithelium, high quality 100x images were taken of the two regions and thickness of the epithelium measured at 25 distinct sites at each level for each animal, then averaged. […] P values were determined by student's T-test. […]
# ovariectomized rat [3] = experiment: Ki67 immunohistochemistry of vaginal sections, ovariectomized rat; type: in vivo; conditions: high compound 4, 1.0 mg/suppository daily for 14 days
# Protocol: Compound 4 of Table 1 was tested in the ovariectomized rat, a model of GSM, (Yousefzadeh N, et al., Ovariectomized rat model of osteoporosis: a practical guide. EXCLI J. 2020 Jan. 10; 19:89-107. doi: 10.17179/excli2019-1990). Six rats were tested in each of five treatment groups: rats treated with low or high concentrations of control (vehicle only); rats treated with low (0.2 mg/suppository or high (1.0 mg/suppository levels of compound 4 (abbreviated as “3F” in these figures); and rats treated with estradiol 0.1 microgram/suppository. Suppositories were administered intravaginally daily for 14 days. There were two sets of vehicle controls, corresponding to the level of excipients used in the in the low and high compound 4 treatment conditions. The estradiol treatment condition had excipients equivalent to the high control and high compound 4 treatment conditions. […] To determine the depth of the epithelium, high quality 100x images were taken of the two regions and thickness of the epithelium measured at 25 distinct sites at each level for each animal, then averaged. […] P values were determined by student's T-test. […]
# Ki-67 is a protein expressed in G1, S, G2, and M phase and has been established as a marker of cellular proliferation. […] Approximately 800 cells were assessed on each slide. […] P values were determined by student's T-test.
# ovariectomized rat [4] = experiment: Vaginal mucin 5B immunohistochemistry, semi-quantitative score, ovariectomized rat; type: in vivo; conditions: intravaginal suppository daily for 14 days
# Protocol: (§2) Compound 4 of Table 1 was tested in the ovariectomized rat, a model of GSM, (Yousefzadeh N, et al., Ovariectomized rat model of osteoporosis: a practical guide. EXCLI J. 2020 Jan. 10; 19:89-107. doi: 10.17179/excli2019-1990). […] To determine the depth of the epithelium, high quality 100x images were taken of the two regions and thickness of the epithelium measured at 25 distinct sites at each level for each animal, then averaged. […] P values were determined by student's T-test. […]
# To investigate compound 4-mediated production of mucins in more detail, we investigated the production and presence of mucin 5B in the rat vagina. […] A semi-quantitative scoring system for the mucin 5B immunohistochemistry was designed with values between 0 to 2 in increments of 0.5 for the quantity of mucin 5B and the depth of the epithelium positive for mucin 5B, and then assessed at the levels 1, 2&3, 4&5, and 6&7. The presence of mucin 5B in the vaginal lumen was also assessed, then all values were summed for each animal. […] P values were determined by student's T-tests.
# [5] = Level in systemic circulation after suppository regimen; type: in vivo; conditions: female, rat, other: intravaginal suppository, one day after a two-week, daily suppository administration regimen, read-out: level in the systemic circulation (undetectable, LOD)
# Protocol: as §1
# ovariectomized rat [6] = experiment: Depth of vaginal epithelium in ovariectomized rat model of GSM; type: in vivo
# Protocol: Independent measurement from mid-vagina (sections 3-4) and vagina near the cervix (sections 6-7) are shown. Twenty-five separate measurements were performed on sections 3-4 and also on sections 6-7 for each animal. There were 6 animals per treatment group, therefore each bar represents the mean of 150 measurements with the vertical line indicating one standard deviation.
# as §2
# ovariectomized rat [7] = experiment: Thickness of uterine endometrium, myometrium and bladder urothelium, ovariectomized rat; type: in vivo; conditions: estradiol 0.1 microgram/suppository daily for 14 days
# Protocol: as §2
# To ascertain whether compound 4 has an effect on the epithelium of anatomically neighboring tissues, the thickness of the epithelium was assessed in the uterus (a known target tissue of physiological levels of estradiol) and bladder (not an estrogen target tissue). The rats from the five treatment groups in the ovariectomized rat model of GSM described in Example 2 were evaluated for the effects of compound 4 on growth of uterus and bladder. […] The endometrium, myometrium, and urothelium thickness of each animal (n=6) were measured in 20 locations and averaged. […] P values were determined by student T-test.
# ovariectomized rat [8] = experiment: Ki67 immunohistochemistry of uterine sections, ovariectomized rat; type: in vivo; conditions: estradiol 0.1 microgram/suppository daily for 14 days
# Protocol: as §2
# Ki67 IHC was performed on a uterine section from animals in the control, the high level of compound 4 (abbreviated as “3F” in these figures), and estradiol groups. […] Approximately 800 cells were assessed for each animal within a group, then averaged to obtain the group mean. […] P values were determined by student T-test.
smiles,measurement,setting,value
"O=c1cc(-c2ccc(O)cc2)oc2ccc(O)cc12 [compound 1, 6-hydroxy-2-(4-hydroxyphenyl)-4H-chromen-4-one]",estrogen agonist effect on estrogen receptor-mediated gene expression,estrogen receptor,estrogen agonist
"O=c1c(O)c(-c2ccc(O)cc2)oc2ccc(O)cc12 [compound 2, 3,6-dihydroxy-2-(4-hydroxyphenyl)-4H-chromen-4-one]",estrogen agonist effect on estrogen receptor-mediated gene expression,estrogen receptor,superior potency as an estrogen receptor agonist compared to compound 1
same,EC50,[1],44 nM
"Cc1c(-c2ccc(O)cc2)oc2ccc(O)cc2c1=O [compound 3, 6-hydroxy-2-(4-hydroxyphenyl)-3-methyl-4H-chromen-4-one]",potency compared to compound 2 (fold less potent),"[1]; T47D ERE-luciferase, 20 hours",about 10 fold
same,estrogenic activity (luciferase) in words,"[1]; T47D ERE-luciferase, 20 hours",at very high doses appears to have superagonist activity
"O=c1c(F)c(-c2ccc(O)cc2)oc2ccc(O)cc12 [compound 4, 3-fluoro-6-hydroxy-2-(4-hydroxyphenyl)-4H-chromen-4-one]","effect on animal behavior, appearance, weight, necropsy findings",ovariectomized rat [2],"does not affect animal behavior, appearance, weight, or necropsy findings"
same,EC50,[1],24 nM
same,estrogenic activity (luciferase) in words,"[1]; T47D ERE-luciferase, 20 hours",robust estrogenic activity and superior potency compared to compound 2
same,percent Ki67 positive cells in vaginal basal and parabasal layers vs control,ovariectomized rat [3],no statistical difference between the groups
same,"vaginal production of mucins, in words",ovariectomized rat [4],stimulates the vaginal production of mucins; also recorded: lower dose of compound 4 treatment results in somewhat higher mucin production than higher dose
same,concentration at 1 day,[5],< 0.33 ng/mL
same,"effect on vaginal epithelium structure, in words",ovariectomized rat [6]; 0.2 and 1.0 mg/suppository intravaginally daily for 14 days,dose dependent; also recorded: can restore the structure of the degenerate vaginal epithelium to the same level as estradiol
same,"mean epithelial depth, p value vs corresponding control","ovariectomized rat [6]; low compound 4, 0.2 mg/suppository intravaginally daily for 14 days, both regions, borderline significant",≈ 0.05
C[C@]12CC[C@@H]3c4ccc(O)cc4CC[C@H]3[C@@H]1CC[C@@H]2O [estradiol],"endometrium, myometrium, and urothelium thickness vs control",ovariectomized rat [7],None of the pairs exhibited a significant difference
same,mean percent Ki67 positive uterine cells vs control,ovariectomized rat [8],None of the pairs exhibited a significant difference

# Reference: patent US20250163013A1, “TREATMENT OF GENITOURINARY SYNDROME OF MENOPAUSE” (THE REGENTS OF THE UNIVERSITY OF COLORADO, a body corporate, priority 2022, published 2025)
